# Calls of active or inactive are those of the source. The calls are words filed in the database; no cut-off is given here.
# Legend:
# [1] = test system: Clostridioides difficile; assay: Ratio of MBC to MIC for Clostridium difficile ATCC BAA 1870; type: functional
# [2] = test system: Streptococcus pneumoniae; assay: Ratio of MBC to MIC for cephalosporin-resistant Streptococcus pneumoniae ATCC 51916 clinical isolates; type: functional
# [3] = test system: Acinetobacter baumannii; assay: microbe, parasite or virus in culture; conditions: ATCC BAA 1747
# Description: Antibacterial activity against Acinetobacter baumannii ATCC BAA 1747 after 18 to 20 hrs in aerobic condition by CLSI-based broth microdilution assay
# [4] = test system: Klebsiella pneumoniae; assay: Ratio of MBC to MIC for Klebsiella pneumoniae BAA-1144 clinical isolates; type: functional
# [5] = test system: Enterobacter cloacae subsp. cloacae; assay: Ratio of MBC to MIC for Enterobacter cloacae subsp. cloacae ATCC BAA-1143 clinical isolates; type: functional
# [6] = test system: Staphylococcus epidermidis; assay: Ratio of MBC to MIC for Staphylococcus epidermidis NRS101 clinical isolates; type: functional
# [7] = test system: Shigella flexneri; assay: Antibacterial activity against Shigella flexneri ATCC 9199 clinical isolates after 18 to 20 hrs in aerobic condition by CLSI-based broth microdilution assay; type: functional
# [8] = test system: Escherichia coli; assay: Antibacterial activity against Escherichia coli ATCC 35150 clinical isolates after 18 to 20 hrs in aerobic condition by CLSI-based broth microdilution assay; type: functional
# [9] = test system: Pseudomonas aeruginosa; assay: Antibacterial activity against Pseudomonas aeruginosa ATCC 15442 clinical isolates after 18 to 20 hrs in aerobic condition by CLSI-based broth microdilution assay; type: functional
# [10] = test system: Salmonella enterica; assay: Antibacterial activity against Salmonella enterica NR-170 clinical isolates after 18 to 20 hrs in aerobic condition by CLSI-based broth microdilution assay; type: functional
# [11] = test system: Staphylococcus aureus; assay: Bactericidal activity against methicillin-resistant Staphylococcus aureus NRS123-USA400 clinical isolates at 5 times MIC incubated over 24 hrs followed by replating on tryptic soy agar plate and further incubated for 18 to 20 hrs by time kill assay; type: functional, organism-based
# [12] = test system: Escherichia coli; assay: Antibacterial activity against carbapenem-resistant Escherichia coli BAA-2452 clinical isolates after 18 to 20 hrs in aerobic condition by CLSI-based broth microdilution assay; type: functional
# [13] = test system: Listeria monocytogenes; assay: Antibacterial activity against Listeria monocytogenes ATCC 19111 after 18 to 20 hrs in aerobic condition by CLSI-based broth microdilution assay; type: functional
# [14] = test system: Streptococcus pneumoniae; assay: Antibacterial activity against cephalosporin-resistant Streptococcus pneumoniae ATCC 51916 clinical isolates after 18 to 20 hrs by CLSI-based broth microdilution assay; type: functional
# [15] = test system: Klebsiella pneumoniae; assay: Ratio of MBC to MIC for Klebsiella pneumoniae BAA-1706 after 18 to 20 hrs in aerobic condition by CLSI-based broth microdilution assay; type: functional
# [16] = test system: Staphylococcus aureus; assay: Antibacterial activity against linezolid-resistant/Methicillin-resistant Staphylococcus aureus NRS119 clinical isolates after 18 to 20 hrs in aerobic condition by CLSI protocol based broth microdilution assay; type: functional
# [17] = test system: Escherichia coli; assay: microbe, parasite or virus in culture; conditions: ATCC 1411
# Description: Antibacterial activity against Escherichia coli ATCC 1411 clinical isolates after 18 to 20 hrs in aerobic condition by CLSI-based broth microdilution assay
# [18] = test system: Salmonella enteritidis; assay: Antibacterial activity against Salmonella enteritidis ATCC 13076 clinical isolates after 18 to 20 hrs in aerobic condition by CLSI-based broth microdilution assay; type: functional, Salmonella enterica subsp. enterica serovar Enteritidis; conditions: Salmonella enterica
# [19] = test system: Escherichia coli; assay: Antibacterial activity against carbapenem-resistant Escherichia coli BAA-2469 clinical isolates after 18 to 20 hrs in aerobic condition by CLSI-based broth microdilution assay; type: functional
# [20] = test system: Escherichia coli; assay: Antibacterial activity against Escherichia coli BW25113 clinical isolates after 18 to 20 hrs in aerobic condition by CLSI-based broth microdilution assay; type: functional
# [21] = test system: Staphylococcus aureus; assay: Antibacterial activity against Methicillin-resistant Staphylococcus aureus USA700-NRS386 clinical isolates after 18 to 20 hrs in aerobic condition by CLSI protocol based broth microdilution assay; type: functional
# [22] = test system: Enterococcus faecium; assay: Antibacterial activity against vancomycin-resistant Enterococcus faecium ATCC 700221 clinical isolates after 18 to 20 hrs in aerobic condition by CLSI-based broth microdilution assay; type: functional
# [23] = test system: Staphylococcus aureus; assay: Antibacterial activity against Methicillin-sensitive Staphylococcus aureus NRS107 clinical isolates after 18 to 20 hrs in aerobic condition by CLSI protocol based broth microdilution assay; type: functional
# [24] = test system: Listeria monocytogenes; assay: Ratio of MBC to MIC for Listeria monocytogenes ATCC 19111 clinical isolates; type: functional
# [25] = test system: Staphylococcus aureus; assay: Antibacterial activity against methicillin-resistant Staphylococcus aureus NRS384-USA300 clinical isolates after 18 to 20 hrs in aerobic condition by CLSI protocol based broth microdilution assay; type: functional
# [26] = test system: Acinetobacter baumannii; assay: Antibacterial activity against Acinetobacter baumannii ATCC BAA 1141 clinical isolates after 18 to 20 hrs in aerobic condition by CLSI-based broth microdilution assay; type: functional
# [27] = test system: Acinetobacter baumannii; assay: Ratio of MBC to MIC for Acinetobacter baumannii NR 17785 clinical isolates; type: functional
# [28] = test system: Streptococcus pneumoniae; assay: Antibacterial activity against methicillin-resistant Streptococcus pneumoniae ATCC 700677 clinical isolates after 18 to 20 hrs by CLSI-based broth microdilution assay; type: functional
# [29] = test system: Enterococcus faecalis; assay: Ratio of MBC to MIC for vancomycin-resistant Enterococcus faecalis ATCC 51299 clinical isolates; type: functional
# [30] = test system: Pseudomonas aeruginosa; assay: microbe, parasite or virus in culture; conditions: ATCC 9027
# Description: Antibacterial activity against Pseudomonas aeruginosa ATCC 9027 clinical isolates after 18 to 20 hrs in aerobic condition by CLSI-based broth microdilution assay
# [31] = test system: Acinetobacter baumannii; assay: Ratio of MBC to MIC for Acinetobacter baumannii NR 17786 clinical isolates; type: functional
# [32] = test system: Pseudomonas aeruginosa; assay: Ratio of MBC to MIC for Pseudomonas aeruginosa ATCC 15442 clinical isolates; type: functional
# [33] = test system: Staphylococcus epidermidis; assay: Antibacterial activity against Staphylococcus epidermidis NRS101 after 18 to 20 hrs in aerobic condition by CLSI-based broth microdilution assay; type: functional
# [34] = test system: Shigella flexneri; assay: Ratio of MBC to MIC for Shigella flexneri ATCC 9199 clinical isolates; type: functional
# [35] = test system: Escherichia coli; assay: Antimicrobial activity against Escherichia coli JW55031 harboring deltatolC mutant after 18 to 20 hrs in aerobic condition by CLSI protocol based broth microdilution assay; type: functional
# [36] = test system: Klebsiella pneumoniae; assay: Antibacterial activity against carbapenem-resistant Klebsiella pneumoniae ATCC BAA-1705 clinical isolates after 18 to 20 hrs in aerobic condition by CLSI-based broth microdilution assay; type: functional
# [37] = test system: Salmonella typhimurium; assay: Ratio of MBC to MIC for Salmonella typhimurium ATCC 700720 clinical isolates; type: functional, Salmonella enterica subsp. enterica serovar Typhimurium
# [38] = test system: Enterococcus faecium; assay: Ratio of MBC to MIC for vancomycin-resistant Enterococcus faecium ATCC 700221 clinical isolates; type: functional
# [39] = test system: Salmonella enteritidis; assay: Antibacterial activity against Salmonella enteritidis ATCC 14028 clinical isolates after 18 to 20 hrs in aerobic condition by CLSI-based broth microdilution assay; type: functional, Salmonella enterica subsp. enterica serovar Enteritidis; conditions: Salmonella enterica
# [40] = test system: Enterococcus faecalis; assay: Antibacterial activity against vancomycin-resistant Enterococcus faecalis ATCC 51299 clinical isolates after 18 to 20 hrs in aerobic condition by CLSI-based broth microdilution assay; type: functional
# [41] = test system: Escherichia coli; assay: Antibacterial activity against Escherichia coli ATCC 25922 clinical isolates after 18 to 20 hrs in aerobic condition by CLSI-based broth microdilution assay; type: functional
# [42] = test system: Escherichia coli; assay: Ratio of MBC to MIC for Escherichia coli ATCC 25922 clinical isolates; type: functional
# [43] = test system: Escherichia coli; assay: Inhibition of 6His tagged Escherichia coli UPPP expressed in Escherichia coli C41(DE3) cells preincubated for 15 mins followed by FPP substrate addition and measured after 20 mins by malachite green reagent based assay
smiles,measurement,setting,value
C/C(=N\NC(=N)N)c1cnn(-c2ccc(C#CC3(O)CCCCC3)cc2)c1C,Ratio,[1],<3
same,Ratio,[2],<3
same,MIC,[3],16 µg/mL
same,Ratio,[4],>=1
same,Ratio,[5],> 1
same,Ratio,[6],<3
same,MIC,[7],16 µg/mL
same,MIC,[8],16 µg/mL
same,MIC,[9],64 µg/mL
same,MIC,[10],16 µg/mL
same,Activity,[11],Active
same,MIC,[12],64 µg/mL
same,MIC,[13],2 µg/mL
same,MIC,[14],4 µg/mL
same,Ratio,[15],>=1
same,MIC,[16],2 µg/mL
same,MIC,[17],32 µg/mL
same,MIC,[18],32 µg/mL
same,MIC,[19],64 µg/mL
same,MIC,[20],8 µg/mL
same,MIC,[21],2 µg/mL
same,MIC,[22],2 µg/mL
same,MIC,[23],4 µg/mL
same,Ratio,[24],<3
same,MIC,[25],2 µg/mL
same,MIC,[26],8 µg/mL
same,Ratio,[27],>=1
same,MIC,[28],2 µg/mL
same,Ratio,[29],<3
same,MIC,[30],32 µg/mL
same,Ratio,[31],>=1
same,Ratio,[32],>=1
same,MIC,[33],4 µg/mL
same,Ratio,[34],>=1
same,MIC,[35],4 µg/mL
same,MIC,[36],64 µg/mL
same,Ratio,[37],>=1
same,Ratio,[38],<3
same,MIC,[39],32 µg/mL
same,MIC,[40],2 µg/mL
same,MIC,[41],8 µg/mL
same,Ratio,[42],>=1
CCCCCC#Cc1ccc(-n2ncc(/C(C)=N/NC3=NCCN3)c2C)cc1,Ratio,[1],<3
same,Ratio,[2],<3
same,MIC,[3],> 128 µg/mL
same,Ratio,[4],>=1
same,Ratio,[5],> 1
same,Ratio,[6],<3
same,MIC,[7],> 128 µg/mL
same,MIC,[8],> 128 µg/mL
same,MIC,[9],> 128 µg/mL
same,MIC,[10],> 128 µg/mL
same,Activity,[11],Active
same,inhibition,[43],inactive
same,MIC,[13],2 µg/mL
same,MIC,[14],4 µg/mL
same,Ratio,[15],>=1
same,MIC,[16],2 µg/mL
same,MIC,[17],> 128 µg/mL
same,MIC,[18],> 128 µg/mL
same,MIC,[20],> 128 µg/mL
same,MIC,[21],2 µg/mL
same,MIC,[22],2 µg/mL
same,MIC,[23],4 µg/mL
same,Ratio,[24],<3
same,MIC,[25],2 µg/mL
same,MIC,[26],> 128 µg/mL
same,Ratio,[27],>=1
same,MIC,[28],2 µg/mL
same,Ratio,[29],<3
same,MIC,[30],> 128 µg/mL
same,Ratio,[31],>=1
same,Ratio,[32],>=1
same,MIC,[33],2 µg/mL
same,Ratio,[34],>=1
same,MIC,[35],2 µg/mL
same,Ratio,[37],>=1
same,Ratio,[38],<3
same,MIC,[39],> 128 µg/mL
same,MIC,[40],4 µg/mL
same,MIC,[41],> 128 µg/mL
same,Ratio,[42],>=1

# Source: ChEMBL document CHEMBL4334464, “From Phenylthiazoles to Phenylpyrazoles: Broadening the Antibacterial Spectrum toward Carbapenem-Resistant Bacteria” (J Med Chem, 2019)
